Several values for one entry are separate records, joined by “and”; a condition that tells them apart may be missing. Equal values may be shown once. Inconclusive results and toxic doses are left out. Cut-off read from the data, not from the text of the source: active = T/C of 150% or more; inactive = T/C below 125%.
Test system: L1210 leukemia ip in BDF1 mice, survival T/C
Assay: NCI In Vivo Anticancer Drug Screen. Data for tumor model L1210 Leukemia (intraperitoneal) in B6D2F1 (BDF1) mice
Settings: endpoint: mean survival time, higher = longer survival
Summary of the method: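 Transplantable tumor model; survival measured in treated vs vehicle control mice. Value = treated/control.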

[1] = dose: 100.0 mg/kg/injection, schedule: Q01DX001 (ip), vehicle: saline
[2] = dose: 200.0 mg/kg/injection, schedule: Q01DX001 (ip), vehicle: saline
[3] = dose: 400.0 mg/kg/injection, schedule: Q01DX001 (ip), vehicle: saline
[4] = dose: 100.0 mg/kg/injection, schedule: Q01DX009 (ip), vehicle: saline
[5] = dose: 100.0 mg/kg/injection, schedule: Q04DX003 (ip), vehicle: saline
[6] = dose: 200.0 mg/kg/injection, schedule: Q01DX009 (ip), vehicle: saline
[7] = dose: 200.0 mg/kg/injection, schedule: Q04DX003 (ip), vehicle: saline
[8] = dose: 400.0 mg/kg/injection, schedule: Q01DX009 (ip), vehicle: saline
[9] = dose: 400.0 mg/kg/injection, schedule: Q04DX003 (ip), vehicle: saline
[10] = dose: 100.0 mg/kg/injection, schedule: Q01DX009 (ip), vehicle: Klucel (hydroxypropylcellulose) (HPC)
[11] = dose: 200.0 mg/kg/injection, schedule: Q01DX009 (ip), vehicle: Klucel (hydroxypropylcellulose) (HPC)
[12] = dose: 400.0 mg/kg/injection, schedule: Q01DX009 (ip), vehicle: Klucel (hydroxypropylcellulose) (HPC)
[13] = dose: 100.0 mg/kg/injection, schedule: Q04DX003 (ip), vehicle: saline with Tween-80
[14] = dose: 200.0 mg/kg/injection, schedule: Q04DX003 (ip), vehicle: saline with Tween-80
[15] = dose: 400.0 mg/kg/injection, schedule: Q04DX003 (ip), vehicle: saline with Tween-80
[16] = dose: 100.0 mg/kg/injection, schedule: Q01DX001 (ip), vehicle: saline with Tween-80
[17] = dose: 200.0 mg/kg/injection, schedule: Q01DX001 (ip), vehicle: saline with Tween-80
[18] = dose: 400.0 mg/kg/injection, schedule: Q01DX001 (ip), vehicle: saline with Tween-80
[19] = dose: 100.0 mg/kg/injection, schedule: Q04DX003 (ip), vehicle: Klucel (hydroxypropylcellulose) (HPC)
[20] = dose: 200.0 mg/kg/injection, schedule: Q04DX003 (ip), vehicle: Klucel (hydroxypropylcellulose) (HPC)
[21] = dose: 400.0 mg/kg/injection, schedule: Q04DX003 (ip), vehicle: Klucel (hydroxypropylcellulose) (HPC)
[22] = dose: 50.0 mg/kg/injection, schedule: Q01DX009 (ip), vehicle: saline

Measured: T/C

CCOc1ccc(Nc2cccc3ccccc23)cc1
inactive: dose: 100.0 mg/kg/injection, schedule: Q04DX002 (ip), vehicle: Klucel (hydroxypropylcellulose) (HPC) 94 % of control | dose: 200.0 mg/kg/injection, schedule: Q04DX002 (ip), vehicle: Klucel (hydroxypropylcellulose) (HPC) 88 % of control | dose: 400.0 mg/kg/injection, schedule: Q04DX002 (ip), vehicle: Klucel (hydroxypropylcellulose) (HPC) 98 % of control

CCCCC(CCCC)(C(=O)OCCOCCCl)c1cccc2ccccc12
inactive: dose: 100.0 mg/kg/injection, schedule: Q04DX002 (ip), vehicle: saline with Tween-80 101 % of control | dose: 200.0 mg/kg/injection, schedule: Q04DX002 (ip), vehicle: saline with Tween-80 95 % of control | dose: 400.0 mg/kg/injection, schedule: Q04DX002 (ip), vehicle: saline with Tween-80 99 % of control

Cc1ccccc1CO
inactive: dose: 50.0 mg/kg/injection, schedule: Q01DX001 (ip), vehicle: saline 97 % of control | [1] 97 % of control | [2] 97 % of control | [3] 100 % of control

CC(c1ccccc1)S(=O)(=O)c1ccccc1 (stereo not given)
inactive: [1] 102 % of control | [4] 95 % of control | [5] 97 % of control | [2] 101 % of control | [6] 101 % of control | [7] 95 % of control | [3] 95 % of control | [8] 97 % of control | [9] 95 % of control

COc1cccc(NC(=O)c2cccc(C(=O)Nc3cccc(OC)c3)c2)c1
inactive: [10] 94 % of control | [11] 91 % of control | [12] 86 % of control

CCC1([N+](=O)[O-])COP(=O)(N2CC2C)OC1 (stereo not given)
inactive: dose: 100.0 mg/kg/injection, schedule: Q01DX001 (ip), vehicle: carboxymethylcellulose (CMC) 98 % of control | dose: 200.0 mg/kg/injection, schedule: Q01DX001 (ip), vehicle: carboxymethylcellulose (CMC) 96 % of control | dose: 400.0 mg/kg/injection, schedule: Q01DX001 (ip), vehicle: carboxymethylcellulose (CMC) 98 % of control

Cc1c(C=NCCNCCN=Cc2[nH]c(=S)[nH]c(=O)c2C)[nH]c(=S)[nH]c1=O
inactive: dose: 44.0 mg/kg/injection, schedule: Q04DX003 (ip), vehicle: saline with Tween-80 97 % of control and 98 % of control | dose: 66.0 mg/kg/injection, schedule: Q04DX003 (ip), vehicle: saline with Tween-80 106 % of control and 108 % of control | [13] 103 % of control and 110 % of control | dose: 150.0 mg/kg/injection, schedule: Q04DX003 (ip), vehicle: saline with Tween-80 98 % of control and 104 % of control | [14] 110 % of control | [15] 104 % of control

CC(=O)NC1C(OCc2ccccc2)OC(COC(c2ccccc2)(c2ccccc2)c2ccccc2)C(N=[N+]=[N-])C1OCc1ccccc1 (stereo not given)
inactive: [16] 86 % of control | [17] 86 % of control | [18] 102 % of control

O=C(Nc1cccc(C(=O)O)c1)Nc1cccc(C(F)(F)F)c1
inactive: [10] 86 % of control | [11] 86 % of control

CCC(/C=C1\Sc2ccc(C)cc2N1CC)=C\c1sc2ccc(OC)cc2[n+]1CC
inactive: dose: 2.0 mg/kg/injection, schedule: Q01DX001 (ip), vehicle: other 106 % of control | dose: 4.0 mg/kg/injection, schedule: Q01DX001 (ip), vehicle: other 105 % of control

Cc1ccc(Cl)cc1NC(=O)c1ccccc1
inactive: [10] 89 % of control | [19] 95 % of control | [11] 100 % of control | [20] 106 % of control | [12] 94 % of control | [21] 95 % of control

OC1(C#CI)CCCCC1
inactive: [10] 100 % of control | [11] 96 % of control

CC(/C=C/C(O)=C1/C(=O)CNC1=O)=C\[C@@H](C)[C@H]1O[C@@]2(C)O[C@H](C(=O)[C@@H]3O[C@@]32C)[C@@H]1C
inactive: dose: 25.0 mg/kg/injection, schedule: Q01DX009 (ip), vehicle: saline 94 % of control | [22] 100 % of control | dose: 100.0 mg/kg/injection, schedule: Q01DX001 (ip), vehicle: acetone 89 % of control | [4] 93 % of control | dose: 100.0 mg/kg/injection, schedule: Q04DX003 (ip), vehicle: acetone 87 % of control | dose: 200.0 mg/kg/injection, schedule: Q01DX001 (ip), vehicle: acetone 89 % of control | dose: 400.0 mg/kg/injection, schedule: Q01DX001 (ip), vehicle: acetone 96 % of control

CC1CC(NC(=S)NC(=O)c2ccc(Cl)cc2Cl)CC(C)(C)C1 (stereo not given)
inactive: [10] 91 % of control | [11] 96 % of control | [12] 91 % of control

COC(C)c1nnnn1C (stereo not given)
inactive: [13] 97 % of control | [14] 98 % of control | [15] 101 % of control

O=S(=O)(Cl)OO/C=C\OOS(=O)(=O)Cl
inactive: [1] 101 % of control | [2] 108 % of control

CCCCCCC(=O)N1C(C)CCC1C (stereo not given)
inactive: dose: 100.0 mg/kg/injection, schedule: Q04DX002 (ip), vehicle: saline 88 % of control | dose: 200.0 mg/kg/injection, schedule: Q04DX002 (ip), vehicle: saline 94 % of control | dose: 400.0 mg/kg/injection, schedule: Q04DX002 (ip), vehicle: saline 102 % of control

CC1CC(=O)Oc2ccc(C(C)(C)C)cc21 (stereo not given)
inactive: [16] 95 % of control | [17] 91 % of control | [18] 95 % of control

CSc1nc(N)nc2c1nnn2C1OC(CO)C(O)C1O (stereo not given)
inactive: [1] 105 % of control | [2] 105 % of control

CCP(=S)(CC)CCCCCP(=S)(CC)CC
inactive: [13] 92 % of control | [14] 95 % of control | [15] 87 % of control

O=C(NCCCCC(NC(=O)OCc1ccccc1)C(=O)NCCCCCCN(CCCCCCNC(=O)C(CCCCNC(=O)OCc1ccccc1)NC(=O)OCc1ccccc1)C(=O)C(CCCCNC(=O)OCc1ccccc1)NC(=O)OCc1ccccc1)OCc1ccccc1 (stereo not given)
inactive: [1] 100 % of control | [2] 94 % of control | [3] 94 % of control

O=[N+]([O-])c1cc(S(=O)(=O)O)cc(S(=O)(=O)O)c1O
inactive: [4] 102 % of control | [5] 94 % of control | [6] 94 % of control | [7] 100 % of control | [8] 91 % of control | [9] 93 % of control

O=C(Nc1c[nH]c(=O)[nH]c1=O)C(F)(F)F
inactive: [22] 100 % of control | dose: 50.0 mg/kg/injection, schedule: Q04DX003 (ip), vehicle: saline 103 % of control | [4] 96 % of control | [5] 104 % of control | [6] 92 % of control | [7] 108 % of control

CC(=O)NC1CCC(CC(=O)O)CC1 (stereo not given)
inactive: dose: 100.0 mg/kg/injection, schedule: Q01DX001 (ip), vehicle: Klucel (hydroxypropylcellulose) (HPC) 94 % of control and 96 % of control | [10] 98 % of control | [19] 92 % of control | dose: 200.0 mg/kg/injection, schedule: Q01DX001 (ip), vehicle: Klucel (hydroxypropylcellulose) (HPC) 94 % of control and 102 % of control | [11] 87 % of control | [20] 99 % of control | dose: 400.0 mg/kg/injection, schedule: Q01DX001 (ip), vehicle: Klucel (hydroxypropylcellulose) (HPC) 91 % of control and 94 % of control | [21] 95 % of control
